Consider 2 compounds from ChEMBL document CHEMBL3124856, “Design, synthesis, and pharmacological evaluation of a novel series of pyridopyrazine-1,6-dione γ-secretase modulators” (J Med Chem, 2014).

Activity calls are given as the source filed them. The rule behind the calls is not given here.

For series [1], the target named is T1, Gamma-secretase (Homo sapiens) (UniProt Q96BI3+Q9NZ42+Q8WW43+P49768+Q92542+P49810). Description: Binding affinity to gamma-secretase in human HeLa cells assessed as labeling of PS1-NTF at 5 uM by Western blot analysis in presence of GSI-L458. In kind it is cell-based. (In general: Immunoblotting shows a protein as a band on a membrane.)
For series [2], the target named is T1, Gamma-secretase (Homo sapiens). Description: Binding affinity to gamma-secretase in human HeLa cells assessed as labeling of PS1-NTF at 5 uM by Western blot analysis in presence of 2-[2-(7-Fluoronaphthalen-1-yloxy)ethyl]-7-(4-methyl-1H-imidazol-1-yl)-3,4-dihydro-1H-pyrido[1,2-a]pyrazine-1,6(2H)-dione. The format is cell-based.
The target of series [3] is Gamma-secretase. The series can be described thus: Inhibition of gamma-secretase in human HeLa cells assessed as reduction of amyloid beta 42 level preincubated for 30 mins measured after 1.5 hrs by Western blotting analysis. The format is cell-based.
The target in series [4] is T1, Gamma-secretase (Homo sapiens). The series can be described thus: Binding affinity to gamma-secretase in human HeLa cells assessed as labeling of PS1-NTF at 5 uM by Western blot analysis. In kind it is cell-based.
Series [5] has the same target. The series can be described thus: Binding affinity to gamma-secretase in human HeLa cells assessed as labeling of PS1-NTF at 5 uM by Western blot analysis in presence of (S)-1-(1-(4-fluorophenyl)ethyl)-3-(3-methoxy-4-(4-methyl-1H-imidazol-1-yl)benzylidene)piperidin-2-one. The format is cell-based.
Series [6] addresses Gamma-secretase. Description: Modulation of gamma-secretase (unknown origin) expressed in CHO cells overexpressing human wild type APP assessed as reduction of amyloid beta 42 level after 24 hrs by ELISA. In kind it is cell-based. (In general: In an ELISA, binding on a coated surface is turned into a signal by an enzyme label.)
Series [7] is described as follows: Apparent intrinsic clearance in human hepatocytes. The following applies: read-out: CLH(app). In kind it is ADME, cell-based, Hepatocyte.
The test system of a further series is MDR1 (human). The series can be described thus: Efflux ratio of permeability in MDCK cells expressing human MDR1. In kind it is ADME, cell-based, Canis lupus familiaris. The following applies: dog.
A short description of series [8]: Apparent intrinsic clearance in human liver microsomes. In kind it is ADME. The following applies: read-out: CLH(app). A general note: Liver microsomes are a subcellular fraction often used to study metabolism.
The nature of series [9]: Apparent intrinsic clearance in rat liver microsomes. In kind it is ADME. To be noted: read-out: CLH(app).

On to `C#CCCCOc1ccc(C(=O)c2cccc(OCCN3CCn4c(ccc(-n5cnc(C)c5)c4=O)C3=O)c2)cc1`, for which the result in series [1] and in [5] was inactive. Moreover, the outcome in series [2] and in [4] was Active. Also, the IC50 at Gamma-secretase [3] is 135 nM.
`Cc1cn(-c2ccc3n(c2=O)CCN(CC2(c4ccc(Cl)cc4)CC2)C3=O)cn1`: the half-maximal inhibitory concentration (IC50) on Gamma-secretase [6] was found to be 410 nM. For the same compound, the results for the CLint scaled in series [7], in series [8] and in [9] were less than 2.8 mL/min/kg, 8.1 mL/min/kg and 482 mL/min/kg, respectively. In addition, in the series with MDR1 (human), the efflux ratio was 1.7.

As a reminder, the IC50 is the midpoint of a concentration-inhibition curve. One may read the efflux ratio as a quotient of directional permeabilities that is used to spot active efflux.
